No end group written: not given here.

For one data set, the system named is adrenal gland. Briefly: MRI of adrenal glands after ACTH-MNP injection. The data set is classed as in vivo, mouse. The note with it: tail vein. The method, then: ACTH-MNP was injected through tail vein (approximately 1 μg iron-oxide per gram of body weight) in a 1-day old mouse and a 60-day old mouse. MR images (T2, TE 6000, TR=[…], 0.4-1 mm slice thickness, 3 cm FOV, Brucker Biospin 7T) were obtain before, and up to 3 hours after injection with these contrast agents.

The nature of data set [1]: Shelf-life of the compounds. It is filed as physicochemical.
Data set [2] is described as follows: Tissue half-life of the particles. To be noted: in vivo.
A further data set concerns AtT-20 cells. Briefly: Functional studies of tumor cells: c-AMP production. The data set is classed as cell-based, Murine. The method, then: Functional studies of tumor cells. Murine pituitary tumor cell lines (AtT-20 cells; American Type Culture Collection designation CCL-89™) were incubated with CRF and CRF-MNP preparations at 6 different molar concentrations of CRF and CRF-equivalent concentration of CRF-MNP (10^−12-10^−7 molar, factor of 10 increase per step). Production of c-AMP (nM) was measured after equivalent times of incubation with all the preparations.

Where [3] appears, read: equivalent CRF concentrations 10^−12-10^−7 molar.

For “ACTH-MNP: Adrenocorticotropin Hormone (ACTH)-conjugated dextran-coated and epoxy surface-modified magnetonanoparticles, 10-15 nm diameter (SYSMEHFRWGKPVGKKRRPVKVYPNGAEDESAEAFPLEF; also: conjugated to dextran-coated, epoxy surface-modified magnetic nanoparticles; UniProt P01189 138-176, looked up)”, the “uptake in the adrenals” value was “increased uptake (decreased signal intensity)” in the data set with adrenal gland (1-day old mouse, 5 μl) and “increased uptake (decreased signal intensity)” in the data set on adrenal gland (60 day old mouse, 100 μl). The shelf-life in data set [1] was 2-3 months. Also, the tissue half-life result in data set [2] is recorded as “order of hours to days”.
Turning to “CRF-MNP: CRF-conjugated dextran-coated and maleimide surface-modified magnetonanoparticles, 10-15 nm diameter”, in the data set on AtT-20 cells (AtT-20 cells), the cytotoxicity result is given as “not cytotoxic”. In addition, the “functional properties of CRF while conjugated to the nanoparticles” value with AtT-20 cells (cellular level) is on record as “retains its functional properties”. Besides, in the data set on AtT-20 cells (setting [3]), the “decrease in potency compared to CRF (c-AMP production)” value was “approximately 10 fold” and the “increase in efficacy compared to CRF (c-AMP production)” value is “two-fold increase”. Also, the shelf-life in data set [1] is given as 6-12 months. The tissue half-life result in data set [2] is “order of hours to days”.

Values taken from patent publication US9011913B2, “Use of functionalized magnetic nanoparticles in cancer detection and treatment” (The Regents of the University of California, priority 2008, dated 2015).
